# Legend:
# [1] = Example 2: females at risk of fetal malformations, treatment from before conception through first trimester; assay type: in vivo; conditions: once daily from before conception through the end of the first trimester; relative to the untreated controls
# Procedure: Females determined to be at risk of fetal malformations and who are seeking a further pregnancy are split into no treatment, folate treatment, D-chiroinositol treatment, and Folate+D-chiroinositol treatment arms. The respective regimens are administered once daily from before conception through the end of the first trimester. Relative to the untreated controls, the frequency of fetal malformations is reduced in each of the non-control arms.
# [2] = test system: curly tail model; conditions: cited from earlier work
# [3] = Example 7: fetal alcohol syndrome related defects in offspring of alcohol treated rats; assay type: in vivo; conditions: given before and during the alcohol treatment; versus inositol free alcohol treated group
# Procedure: Female rats are administered alcohol for 2 weeks and then mated. The alcohol administration continues through out pregnancy and the rate of fetal alcohol syndrome related defects in the offspring are noted. A second set of rats from the same strain are mated without having the alcohol treatment as a control and the rate of defects of the same type as noted in the first arm are noted. […] A third arm of the study includes rats that are administered D-chiroinositol or a phosphorylate thereof before and during the alcohol treatment and are otherwise treated in the same manner as in the alcohol treatment above.
# [4] = Example 4: men on androgen ablative therapy, male breast cancer; assay type: in vivo; conditions: prior to and throughout androgen ablative therapy; compared to controls
# Source text: Men preparing to initiate androgen ablative therapy are initiated on a course of D-chiroinositol prior to and throughout the treatment with the androgen ablative therapeutic.
# [5] = test system: phosphatidyl inositol (PI3K) signaling pathway; assay: Example 6: cultured curly tail mice embryos, PNP closure; conditions: embryos cultured from E9.5 to E10.5, in vitro
# Procedure: To determine whether the downstream targets of the phosphatidyl inositol (PI3K) signaling pathway could be effected by an inhibitor, we can use […] to inhibit the effect of inositol on neural tube closure. The curly tail mice embryos are cultured from E9.5 to E10.5, and the length of unclosed neural folds at the pnp are measured to indicate predisposition to spina bifida. Embryos which are exposed to the kinase inhibitor alone have enlarged PNP's, reflecting the in vivo development of spinal NTD's by 50%-60% of curly tail embryos.
# [6] = molecular target: T1, PDK1 (Homo sapiens, UniProt O15530); conditions: phosphorylation of the PDK tide peptide substrate by PDK1; cited from earlier work
# T1 sequence (O15530 1-556): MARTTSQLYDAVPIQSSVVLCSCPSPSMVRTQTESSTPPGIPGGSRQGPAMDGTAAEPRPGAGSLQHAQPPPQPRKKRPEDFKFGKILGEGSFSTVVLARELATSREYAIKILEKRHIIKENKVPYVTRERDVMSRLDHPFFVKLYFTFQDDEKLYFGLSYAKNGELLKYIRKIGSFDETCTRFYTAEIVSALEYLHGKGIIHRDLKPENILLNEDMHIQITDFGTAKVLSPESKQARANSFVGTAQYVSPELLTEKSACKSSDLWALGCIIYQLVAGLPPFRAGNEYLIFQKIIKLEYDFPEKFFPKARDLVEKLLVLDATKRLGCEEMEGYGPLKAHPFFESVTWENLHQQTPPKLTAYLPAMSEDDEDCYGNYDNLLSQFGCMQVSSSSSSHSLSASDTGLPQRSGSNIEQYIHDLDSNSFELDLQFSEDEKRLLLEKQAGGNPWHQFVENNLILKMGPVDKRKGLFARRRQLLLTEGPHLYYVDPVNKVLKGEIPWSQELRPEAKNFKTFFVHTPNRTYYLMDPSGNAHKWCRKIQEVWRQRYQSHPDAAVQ
# [7] = test system: PKB; conditions: increasing extracellular Ins(1,3,4,5,6)P5; cited from earlier work
# [8] = molecular target: T1, PDK1; conditions: cited from earlier work
# [9] = test system: hedgehog signaling; conditions: cultured neonatal mouse ovaries; cited from earlier work
# [10] = test system: Shh signaling; conditions: explants from mice at 13.5 days of gestation, six to eight days in culture; cited from earlier work
# [11] = test system: amyloid β deposits; conditions: in vivo; cited from earlier work
# [12] = China 1993 to 1995; 3.1 per 10,000 births for those not taking folic acid; cited from earlier work
# [13] = taken before conception and during early pregnancy; cited from earlier work
# [14] = test system: Shh signaling; assay: Example 5: curly tail mice embryos, spinal and genitourinary defects; assay type: in vivo; conditions: D-chiroinositol vs. myoinositol
# Procedure: These embryos are exposed to the present invention compound D-chiroinositol vs. myoinositol and internal examination is conducted.
# [15] = test system: MDA-MB 231 cells; conditions: cited from earlier work
# [16] = test system: Colo357, BxPc3, or PancTuI tumors; design: reduction of metastasis / reduction of the number of liver metastases / reduction of volumes of recurrent tumors: concentration or dose not given beside the values; conditions: cited from earlier work; for reduction of the number of liver metastases / reduction of volumes of recurrent tumors: mouse, in vivo
# [17] = test system: PDAC cells; conditions: in vitro; cited from earlier work
# [18] = severe combined immunodeficient mice, orthotopic tumors
compound,measurement,setting,value
"O[C@H]1[C@H](O)[C@H](O)[C@@H](O)[C@@H](O)[C@H]1O [D-chiroinositol, D-chiro-inositol]",frequency of fetal malformations,[1],reduced
same,frequency of spina bifida,"[2]; curly tail model, compound alone",reduced frequency of spina bifida in this model to a greater extent than myo-inositol alone
same,rate of fetal alcohol syndrome defects,[3],substantially less
same,frequency of male breast cancer,[4],substantially reduced
same,PNP closure,[5],normalizes PNP closure
"O=P(O)(O)OC1[C@@H](OP(=O)(O)O)[C@H](OP(=O)(O)O)C(O)[C@H](OP(=O)(O)O)[C@H]1OP(=O)(O)O (stereo partly shown) [Ins(1,3,4,5,6)P5]",direct inhibition of PDK1 catalytic activity,[6],did not directly inhibit
same,PKB activation in cells,[7],lowered PKB activation
"O=P(O)(O)O[C@@H]1[C@H](O)[C@H](O)[C@@H](OP(=O)(O)O)[C@H](OP(=O)(O)O)[C@H]1O [Ins(1,4,5)P3]",binding to PDK1,[8],could not be detected
O=P(O)(O)O[C@H]1[C@H](OP(=O)(O)O)[C@@H](OP(=O)(O)O)[C@H](OP(=O)(O)O)[C@@H](OP(=O)(O)O)[C@H]1OP(=O)(O)O [InsP6],direct inhibition of PDK1 catalytic activity,[6],did not directly inhibit
CC1=C2C[C@H]3[C@@H](CC=C4C[C@@H](O)CC[C@@]43C)[C@@H]2CC[C@]12O[C@@H]1C[C@H](C)CN[C@H]1[C@H]2C [cyclopamine],induced expression of hedgehog target genes Ptch1 and Gli1,[9],inhibits this induced expression of target genes
same,morphogenesis of vibrissa follicles,[10],striking inhibition of morphogenesis
OC1C(O)C(O)C(O)C(O)C1O (stereo not drawn) [epi-inositol],"efficacy in Alzheimer's disease (amyloid β deposits, cognitive ability)",[11],only worked at all when given before disease onset
Nc1nc(O)c2nc(CNc3ccc(C(=O)N[C@@H](CCC(=O)O)C(=O)O)cc3)cnc2n1 [folic acid],frequency of fetal malformations,[1],reduced
same,rate of imperforate anus,[12],"1.6 per 10,000 births"
same,reduction of the risk of the fetus developing a neural tube defect,[13],about 70%
O[C@H]1[C@H](O)[C@@H](O)[C@H](O)[C@@H](O)[C@H]1O [myo-inositol],incidence of neural tube defects,[2]; mouse models that are folate resistant,reduced the incidence of neural tube defects
same,"efficacy in Alzheimer's disease (amyloid β deposits, cognitive ability)",[11],not to be effective
same,severity of spinal and genitourinary defects in embryos,[14],severe compared to those embryos treated with D-chiroinositol
O=P(O)(O)O[C@H]1[C@H](OP(=O)(O)O)[C@@H](OP(=O)(O)O)[C@H](OP(=O)(O)O)[C@@H](OP(=O)(O)O)[C@H]1OP(=O)(O)O [myoinositol hexaphosphate],secretion of MMP-9,[15],significantly inhibits
O[C@H]1[C@H](O)[C@@H](O)[C@H](O)[C@@H](O)[C@@H]1O [scyllo-inositol],"efficacy in Alzheimer's disease (amyloid β deposits, cognitive ability)",[11],prevent the accumulation of amyloid β deposits and improved cognitive ability
etanercept,reduction of the number of liver metastases,[16],42%
same,reduction of volumes of recurrent tumors,[16],51%
same,effect on proliferation and invasiveness of PDAC cells,[17],only marginally affected
infliximab: human-specific anti-TNF antibody,reduction of the number of liver metastases,[16],69%
same,reduction of volumes of recurrent tumors,[16],73%
same,reduction of metastasis,[16]; [18],~50%
same,reduction of tumor growth,[16]; [18],about 30%
same,effect on proliferation and invasiveness of PDAC cells,[17],only marginally affected

# Source: US12329766B2, “Compounds, methods, and treatments for abnormal signaling pathways for prenatal and postnatal development” (priority 2006, dated 2025)
